Laboratory results as given in patent publication US20130317092A1 (priority 2007, published 2013).
Numbered stars: 1 amine (or outer) side, 2 acyl side, 3 side chain; on linkers, the order of the positions; unused ones are H or OH. Bridge positions count the residues as written; N and C are the ends. Square brackets hold non-standard residues; d marks the D form. Peptide text beside a SMILES is read from it. I, II: the chains in the order shown. Actinocin(9to1) = Cc1c2oc3c(C)ccc(C(=O)[*:1])c3nc-2c(C(=O)[*:2])c(N)c1=O; NMeV = CN[C@H](C(=O)O)C(C)C; Sar = CNCC(=O)O

Tests used:
activated caspase-3 = test: Activated caspase-3 immunostaining in Meg-01 cells; format: cell-based, human; conditions: for caspase-3 activation induced by Thapsi or ARP, with co-treatment: Thapsi or ARP plus inhibitor; for caspase-3 activation induced by Thapsi, with co-treatment: Thapsi plus inhibitor
AChmiRNA (miRNA-181a) = AChmiRNA (miRNA-181a) level by real-time RT-PCR in Meg-01 cells; format: cell-based, human; conditions: for AChmiRNA levels on co-treatment with Thapsi: Meg-01 cells co-treated with Thapsi and inhibitor; for ARP-induced decrease of AChmiRNA on co-treatment: Meg-01 cells, ARP plus inhibitor
AChE-R = AChE-R protein immunocytochemistry in Meg-01 cells; format: cell-based, human; conditions: 24 hours
PKCβII = PKCβII immunocytochemistry in Meg-01 cells; format: cell-based, human; conditions: 24 hours
AChE-S = AChE-S protein immunocytochemistry in Meg-01 cells; format: cell-based, human; conditions: 24 hours
activated caspase-9 = test: Activated caspase-9 immunostaining in Meg-01 cells; format: cell-based, human
Bcl-2 = Bcl-2 immunostaining in Meg-01 cells; format: cell-based, human
Meg-01 cells [1] = test: Nuclear area measurement of Meg-01 cells; format: cell-based, human; conditions: 24 hours
Meg-01 cells [2] = test: DNA fragmentation by TUNEL assay in Meg-01 cells; format: cell-based, human
Meg-01 cells [3] = test: Ploidy / DNA content of Meg-01 cells by FACS and propidium iodide; format: cell-based, human; conditions: 72 hours
Meg-01 cells [4] = test: Scanning electron microscopy of Meg-01 cell surface (megakaryocytic maturation); format: cell-based, human; conditions: 24 hour treatment
AChE-R mRNA = AChE-R mRNA level (RT-PCR, fluorescent in situ hybridization) in Meg-01 cells; format: cell-based, human
[5] = test system: Murine macrophage RAW 264.7 cells; test: Nitric oxide production (nitrite, Griess) by RAW 264.7 macrophages; format: cell-based; conditions: LPS 1 μg/ml, IFN-γ 4 ng/ml, oligos 100 nM
Procedure: Murine macrophage RAW 264.7 cells were cultured in 48 well plates (50×10^3 cells per well). The production of NO by these macrophages was examined following various stimuli (6 repetitions for each treatment) at three time intervals (6, 12 and 24 hours) as depicted in FIGS. 27a, 27b and 27c.
Mouse RAW cells, human U937 cells and primary human macrophages were treated for 24 h with 1 μM CpG oligonucleotides or 1 μg/ml bacterial lipopolysaccharide added to standard growth medium
Interleukin 6 expression was assayed by QRT-PCR, nitric oxide was measured by Griess assay and prostaglandin E2 levels were measured by R&D ELISA kit according to manufacturer's instructions.

[6] = test system: 3′UTR fragment of human AChE cDNA; test: Dot blot hybridization of LNA-modified oligos with PCR-amplified AChE 3′UTR; format: binding; conditions: 5′-32P-labeled LNA-modified oligos
Procedure: The common AChE 3′-UTR sequence was obtained from AY750146 (all mRNA sequence beginning from stop codon). 3′-UTR of AChE was amplified by RT-PCR using Promega reagents and total RNA isolated with QIAGEN RNeasy kit from post-mortem human brain, with primers including XhoI, NotI restriction sites in 5′ and 3′ primer, respectively. Primer sequences used were: (5′): […], (3′) (SEQ ID NO: 111): […] (SEQ ID NO: 112). Annealing temperature of 57° C. was used. PCR product was purified with QIAGEN QiaQuick kit, size of fragment verified in agarose gel, spotted on a dry HyBond nylon membrane in 2 ul drops, cross-linked to the membrane using 1200 mJ UV burst, and baked for 1 hr at 80° C. Membrane was blocked for at least 2 hours in solution containing 50% deionized formamide, 5×SSPE, 0.5% SDS, 5×Denhardt's Solution at 50° C.; and hybridized o/night in same conditions with 5′-32P-labeled probes mimicking miRs wholly or with mismatches as indicated, washed 4 times at 37° C. in 3×SSPE, 5% SDS, 10×Denhardt's solution; once at 42° C. in 1×SSPE, 1% SDS; exposed over up to 3 days to a PhosphorImager (Molecular Dynamics/GE Healthcare) plate, and signal quantified using FujiFilm's ImageGauge 4 software.

RAW 264.7 cells = test: NO production of LPS-challenged RAW 264.7 cells transfected with miR mimics; format: cell-based, murine
Procedure: Murine RAW 264.7 macrophage-derived cell line known to express TLR4 and respond to endotoxin by production of pro-inflammatory mediators such as Nitric Oxide (NO), prostaglandins, and cytokines as ILE IL6, and TNFalpha were used (described in the preceding examples e.g., Examples 7 and 8). Cells were grown in 5 ml flasks in a humidified atmosphere in Dulbecco's modified Eagle's medium (DMEM, Biological Industries) supplemented with 10% fetal calf serum (FCS) and 2 mM L-glutamine at 37° C., 5% CO2.
Griess method was used to determine NO2 levels in medium in which macrophages had been cultured. 100 μl of each sample+100 μl of Griess reagent (1% sulfanilamide/0.1% naphthylethylenediamine dihydrochloride/2.5% H3PO4)—were incubated 10-20 min at room temperature. Read absorbance at 546 nm in micro-ELISA reader.
miR 132 and 182* (SEQ ID NOs: 54 and 93, respectively) were LNA modified (products are designated with SEQ ID NOs. 107 and 108, respectively). A locked nucleic acid (LNA), often referred to as inaccessible RNA, is a modified RNA. Ribose moiety of LNA nucleotide is modified with an extra bridge connecting 2′ and 4′ carbons. The bridge “locks” the ribose in 3′-endo structural conformation, which is often found in A-form of DNA or RNA. LNA nucleotides can be mixed with DNA or RNA bases in the oligonucleotide whenever desired. The locked ribose conformation enhances base stacking and backbone pre-organization.
electroporation and lipofection were used for cell transfection.
Oligos containing LNA modifications on every third base (Table 4) were obtained from Sigma-Proligo. Transfection was performed with Lipofectamine 2000 (Invitrogen, Carlsbad, Calif.) using 3 μg of oligo per sample. Briefly, cells were brought to 80%-90% confluence at the time of transfection. For each transfection sample, 3 μg oligo were diluted in 1 ml of RPMI-1640 while the lipofectamine reagent was diluted in 1 ml of RPMI-1640. After 5 minutes the diluted oligo and lipofectamine were combined and incubated for 20 minutes. This was added to the cells within the 75 ml flask, containing 6 ml RPMI complete+GM-CSF ([…] final oligo concentration). […]
To determine cell viability 40 μl of thiazolyl blue tetrazolium bromide (MTT) reagent (Sigma) at 5 mg/ml was added per sample well, incubated for 30 minutes at 37° C. Medium was removed, 400 μl of DMSO was added per well and absorbance read at 550 nm Griess method was used to determine NO2 levels in conditioned medium from macrophage cultures. […] Absorbance was read at 546 nm in a micro-ELISA reader. TNF-α, IL-6 levels were measured by Enzyme-Linked Immunosorbent Assay (ELISA) according to manufacturer's procedures (R&D Systems kits, MTA00, M6000B, respectively). All absorbance results were normalized using standard curves. […]

## CO[C@H](C/C=C\C=C\CC/C=C/C[C@H](C)/C=C/C(=C\C(=O)O)CC(=O)O)/C(C)=C\C=C(/C)C(=O)O [Bongkrekic acid]
Activated caspase-3; 24 hours
  caspase-3 activation induced by Thapsi or ARP, with co-treatment: inhibited the caspase-3 activation induced by ER-calcium releasing or ARP

## O=S(=O)(NCCNCC=Cc1ccc(Br)cc1)c1cccc2cnccc12 [H89, N-(2-((p-Bromocinnamyl)amino)ethyl)-5-isoquinolinesulfonamide]
AChmiRNA (miRNA-181a)
  AChmiRNA levels on co-treatment with Thapsi: restored the control levels of AChmiRNA
  ARP-induced decrease of AChmiRNA on co-treatment: prevented the ARP effect
AChE-R
  increase in AChE-R immunoreactivity elicited by Thapsi or ARP, with co-treatment: blocked the characteristic increase in AChE-R immunoreactivity
Activated caspase-3; 24 hours
  caspase-3 activation induced by Thapsi or ARP, with co-treatment: prevented the differentiation-associated caspase-3 activation induced by both Thapsi and ARP

## CCCCCCCCCCCCCC(=O)O[C@@H]1[C@@H](C)[C@@]2(O)[C@@H](C=C(CO)C[C@]3(O)C(=O)C(C)=C[C@@H]23)[C@@H]2C(C)(C)[C@]12OC(C)=O [PMA, phorbol 12-myristate 13-acetate]
PKCβII
  staining intensity for PKCβ: increased staining intensity for PKCβ

## CN(C)C(=O)Oc1ccc[n+](C)c1 [Pyridostigmine]
Activated caspase-3
  caspase-3 activation induced by Thapsi, with co-treatment: inhibited the activation of caspase-3 induced by Thapsi

## Cc1c2oc3c(C)ccc(C(=O)N[C@@H]4C(=O)N[C@H](C(C)C)C(=O)N5CCC[C@H]5C(=O)N(C)CC(=O)N(C)[C@@H](C(C)C)C(=O)O[C@@H]4C)c3nc-2c(C(=O)N[C@@H]2C(=O)N[C@H](C(C)C)C(=O)N3CCC[C@H]3C(=O)N(C)CC(=O)N(C)[C@@H](C(C)C)C(=O)O[C@@H]2C)c(N)c1=O [actinomycin D, Actinomycin D] (I: T[dV]P[Sar][NMeV] / II: T[dV]P[Sar][NMeV]; ester I:1-I:C, II:1-II:C; linker I:N-II:N via Actinocin(9to1))
Activated caspase-3
  caspase-3 activation induced by Thapsi, with co-treatment: inhibited

## ARP: human AChE-R C-terminal peptide GMQGPAGSGWEEGSGSPPGVTPLFSP (ARP peptide (synthetic))
AChmiRNA (miRNA-181a); Meg-01 cells treated for 24 hours, agent alone
  level of AChmiRNA: decreased the level of AChmiRNA
PKCβII
  staining intensity for PKCβ: increased staining intensity for PKCβ
AChE-S
  expression of the AChE-S variant (immunohistochemistry): decrease of expression of the AChE-S variant
Activated caspase-9
  incidence of activated caspase-9 positive cells: increased the incidence of positive cells for activated caspase-9 immunostaining
Bcl-2
  immunoreactivity of Bcl-2: decrease in the immunoreactivity of Bcl-2
Meg-01 cells [1]
  nuclear area / nuclei size: increased
AChE-R
  AChE-R protein level (immunohistochemistry): increase also in the protein level
Meg-01 cells [2]
  DNA fragmentation / cell death (TUNEL): no significant changes
Meg-01 cells [3]
  ploidy (DNA content): increased ploidy
Activated caspase-3; 24 hours, agent alone
  incidence of activated caspase-3 positive cells: increased the fraction of cells immunopositive for activated caspase-3
Meg-01 cells [4]
  cell surface morphology (scanning electron microscopy): induced cell surface modifications
AChE-R mRNA; 24 hours
  AChE-R mRNA level (RT-PCR): increased the level of AChE-R mRNA
AChE-R mRNA; agent alone
  AChE-R mRNA level by FISH (population distribution): rightward shift in the population distribution of labeling intensity

## Bisindolylmaleimide [BIM]
AChmiRNA (miRNA-181a)
  AChmiRNA levels on co-treatment with Thapsi: restored the control levels of AChmiRNA
  ARP-induced decrease of AChmiRNA on co-treatment: prevented the ARP effect
AChE-R
  increase in AChE-R immunoreactivity elicited by Thapsi or ARP, with co-treatment: blocked the characteristic increase in AChE-R immunoreactivity
Activated caspase-3; 24 hours
  caspase-3 activation induced by Thapsi or ARP, with co-treatment: inhibited the activation of caspase-3 induced by both treatments

## IFN-γ: interferon (IFN)-γ
[5]; RAW 264.7, 6 hours
  Nitrite concentration reflecting NO production: 8 µM
[5]; RAW 264.7, 12 hours
  Nitrite concentration reflecting NO production: 26 µM
[5]; RAW 264.7, 24 hours
  Nitrite concentration reflecting NO production: 54 µM

## SEQ ID NO:20: similar oligo with an inverse sequence to AChmiON, used as negative control (CCACGUCCUCUUGCACCGUC; similar oligo to AChmiON, chemistry not explicitly stated, further chemistry not given here)
AChE-R mRNA; negative control oligo, data not shown
  effect on the AChE splice shift: no significant effect on the AChE splice shift

## miR-132 mut2A>G: miR-132 mimic with single mismatch in second nucleotide: TG+ACA+GTC+TAC+AGC+CAT+GGT+CG (TGACAGTCTACAGCCATGGTCG; LNA at 3, 6, 9, 12, 15, 18, 21, other sugars and backbone not given here)
[6]
  binding to PCR-amplified AChE 3′UTR (dot blot signal): detectable signal only when bound to 50 ng of PCR product

## miR-182* mimic: LNA-modified oligo mimicking miR-182*: TG+GTT+CTA+GAC+TTG+CCA+ACT+A (TGGTTCTAGACTTGCCAACTA; LNA at 3, 6, 9, 12, 15, 18, 21, other sugars and backbone not given here)
RAW 264.7 cells; LPS-exposed RAW-264.7 cells transfected with oligo (Example 13)
  activation of macrophage cell lines by LPS (NO production) after transfection: somewhat less prominently
RAW 264.7 cells; RAW 264.7 cells transfected or electroporated, then endotoxin challenge (Example 11)
  endotoxin response (NO production) after transfection: significantly attenuate endotoxin response
[6]
  binding to PCR-amplified AChE 3′UTR (dot blot signal): significant binding to 20 ng doses of PCR product

## miR-182* mut2G>A: miR-182* mimic with single mismatch in second nucleotide: TA+GTT+CTA+GAC+TTG+CCA+ACT+A (TAGTTCTAGACTTGCCAACTA; LNA at 3, 6, 9, 12, 15, 18, 21, other sugars and backbone not given here)
[6]
  binding to PCR-amplified AChE 3′UTR (dot blot signal): disappeared altogether
